Results: patent US20260035382A1, “COMPOUNDS AS SUMO ACTIVATING ENZYME INHIBITORS” (WIGEN BIOMEDICINE TECHNOLOGY (SHANGHAI) CO., LTD., priority 2022, published 2026)

These compounds were tested against SAE (Homo sapiens (Human), UniProt Q9UBT2) (assay: In vitro inhibitory activity assay against SAE (SUMO-2/3 immunofluorescence in HCT116 cells)). Settings: 6 h incubation, class symbols, read-out: SUMO IF IC50.
Assay type: cell-based
Experimental: HCT116 cells were seeded into a 96-well black transparent bottom plate at about 20000/well with 90 μL per well. The cells were incubated at 37° C. overnight for 24 h. The test compounds were 10-fold diluted to give a final concentration, and 10 μL of the diluted compounds was added to each well of the cell culture plate. The mixture was incubated at 37° C. for 6 h. The cells were then washed gently, the culture medium was discarded, and the cells were washed once with 200 μL of 0.1% o PBST. 50 μL of 4% PFA was added to each well, and the cells were immobilized at room temperature for 20 min, and then washed with PBS 2-3 times. 50 μL of 0.2% o Triton X-100 was added to each well, and the cells were left to stand at room temperature for 15 min and washed with 0.1% PBST 3 times. 100 uL of 3% BSA (0.6 g BSA+20 mL PBS) was added to each well, and the mixture was blocked at 37° C. for 30 min. After the blocking was completed, the liquid was removed and a primary antibody (SUMO-2/3 (181H8) Rabbit mAb, 1:400 dilution) was prepared with […]. 30 μL of the diluted primary antibody was added to each well, and the mixture was incubated at 4° C. overnight. The cells were washed 3 times with 200 μL of 0.1% o PBST. A FITC secondary antibody (Fluorescein (FITC)-conjugated Affinipure Goat Anti-Rabbit IgG (H+L), 1:300 dilution) was further prepared with 1% o BSA, and 40 μL of the diluted secondary antibody was added to each well. The mixture was incubated at room temperature in the dark for 2 h, and then the cells were washed 4 times with 0.1% PBST. The fluorescence signal of the sample was detected and compared to the DMSO group, and the inhibition rate and IC50 were calculated.

Sequence of SAE (Q9UBT2 whole entry): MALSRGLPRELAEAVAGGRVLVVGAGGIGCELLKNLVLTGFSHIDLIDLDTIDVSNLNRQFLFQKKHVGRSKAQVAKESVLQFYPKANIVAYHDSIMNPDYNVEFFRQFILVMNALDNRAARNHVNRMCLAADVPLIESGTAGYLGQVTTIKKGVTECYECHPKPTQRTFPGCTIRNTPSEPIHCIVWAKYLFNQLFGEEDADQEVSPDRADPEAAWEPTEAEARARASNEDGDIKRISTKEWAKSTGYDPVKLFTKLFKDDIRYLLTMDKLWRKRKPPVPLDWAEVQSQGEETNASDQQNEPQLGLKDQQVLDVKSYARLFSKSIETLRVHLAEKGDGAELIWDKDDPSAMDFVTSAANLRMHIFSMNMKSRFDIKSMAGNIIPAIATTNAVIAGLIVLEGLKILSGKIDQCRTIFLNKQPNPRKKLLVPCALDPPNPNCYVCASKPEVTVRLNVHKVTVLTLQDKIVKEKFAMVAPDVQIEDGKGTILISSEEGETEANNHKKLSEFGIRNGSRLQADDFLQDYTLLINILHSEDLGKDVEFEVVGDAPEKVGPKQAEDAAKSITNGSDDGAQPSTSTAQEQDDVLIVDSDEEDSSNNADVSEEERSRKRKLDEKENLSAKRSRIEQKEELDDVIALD
Sequence of SAE (Q9UBE0 whole entry partner): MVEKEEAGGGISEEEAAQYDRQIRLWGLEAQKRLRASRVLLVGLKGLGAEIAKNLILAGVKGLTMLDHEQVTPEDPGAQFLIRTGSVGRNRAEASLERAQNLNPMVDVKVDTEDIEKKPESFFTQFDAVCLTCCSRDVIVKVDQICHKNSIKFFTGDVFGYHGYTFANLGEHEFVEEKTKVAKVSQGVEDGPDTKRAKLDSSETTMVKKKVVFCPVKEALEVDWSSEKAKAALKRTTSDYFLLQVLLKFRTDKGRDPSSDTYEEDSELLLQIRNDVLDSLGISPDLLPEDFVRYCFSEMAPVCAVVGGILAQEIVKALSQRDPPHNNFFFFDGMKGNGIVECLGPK

`NS(=O)(=O)OC[C@H]1C[C@@H](Nc2ncncc2C(=O)c2cc3c(s2)CC[C@]32NCCc3ccncc32)C[C@@H]1O` [Compound 235] and `Cc1ccc2c(c1)[C@@]1(CCc3sc(C(=O)c4cncnc4N[C@@H]4C[C@H](COS(N)(=O)=O)[C@@H](O)C4)cc31)NCC2` [Compound 223] fall in the same range of IC50: 50 to 200 nM for the first, 50 to 200 nM for the second.

`N#Cc1ccc2c(c1)[C@@]1(CCc3sc(C(=O)c4cncnc4N[C@@H]4C[C@H](COS(N)(=O)=O)[C@@H](O)C4)cc31)NCC2` [Compound 54] and `N#Cc1ccc2c(c1)C1(CCCc3sc(C(=O)c4cncnc4N[C@@H]4C[C@H](COS(N)(=O)=O)[C@@H](O)C4)cc31)NCC2` (stereo partly drawn) [Compound 10] fall in the same range of IC50: 50 to 200 nM for the first, 50 to 200 nM for the second.

First: NS(=O)(=O)OC[C@H]1C[C@@H](Nc2ncncc2C(=O)c2cc3c(s2)CN(C2CC2)C[C@]32OCCc3ccc(Cl)cc32)C[C@@H]1O [Compound 279]
Second: CN1Cc2sc(C(=O)c3cncnc3N[C@@H]3C[C@H](COS(N)(=O)=O)[C@@H](O)C3)cc2[C@@]2(C1)OCCc1ccc(Cl)cc12 [Compound 260]
The IC50 of the first is lower: ≤ 50 nM for the first, > 200 nM for the second.

Compared with `NS(=O)(=O)OC[C@H]1C[C@@H](Nc2ncncc2C(=O)c2cc3c(s2)CSC[C@]32NCCc3ccc(F)cc32)C[C@@H]1O` [Compound 90], `NS(=O)(=O)OC[C@H]1C[C@@H](Nc2ncncc2C(=O)c2cc3c(s2)CSC[C@@]32NCCc3ccc(F)cc32)C[C@@H]1O` [Compound 89] is higher in IC50: ≤ 50 nM for the first, > 200 nM for the second. The first is the more potent here.

`NS(=O)(=O)OC[C@H]1C[C@@H](Nc2ncncc2C(=O)c2cc3c(s2)OCCC32NCCc3ccc(Cl)cc32)C[C@@H]1O` (stereo partly drawn) [Compound 38] and `NS(=O)(=O)OC[C@H]1C[C@@H](Nc2ncncc2C(=O)c2cc3c(s2)C=CC[C@]32NCCc3ccc(Cl)cc32)C[C@@H]1O` [Compound 216] cannot be ordered by IC50: 50 to 200 nM for the first, ≤ 50 nM for the second.

Going from `CC(C)N1Cc2sc(C(=O)c3cncnc3N[C@@H]3C[C@H](COS(N)(=O)=O)[C@@H](O)C3)cc2[C@]2(C1)OCCc1ccc(Cl)cc12` [Compound 273] to `CCN1Cc2sc(C(=O)c3cncnc3N[C@@H]3C[C@H](COS(N)(=O)=O)[C@@H](O)C3)cc2[C@@]2(C1)OCCc1ccc(Cl)cc12` [Compound 266], the IC50 rises from ≤ 50 nM to > 200 nM. The first is the more potent here.

`COc1cc2c(cc1Cl)C1(CCCc3sc(C(=O)c4cncnc4N[C@@H]4C[C@H](COS(N)(=O)=O)[C@@H](O)C4)cc31)NCC2` (stereo partly drawn) [Compound 31] and `NS(=O)(=O)OC[C@H]1C[C@@H](Nc2ncncc2C(=O)c2cc3c(s2)CCC[C@]32NCCc3cc(Cl)c(Cl)cc32)C[C@@H]1O` [Compound 208] cannot be ordered by IC50: 50 to 200 nM for the first, ≤ 50 nM for the second.

`NS(=O)(=O)OC[C@H]1C[C@@H](Nc2ncncc2C(=O)c2cc3c(s2)CC[C@]32NCCc3cc(F)c(Cl)c(F)c32)C[C@@H]1O` [Compound 233] and `NS(=O)(=O)OC[C@H]1C[C@@H](Nc2ncncc2C(=O)c2cc3c(s2)CC[C@]32NCCc3cc(F)c(Cl)cc32)C[C@@H]1O` [Compound 228] cannot be ordered by IC50: ≤ 50 nM for the first, ≤ 50 nM for the second.

`NS(=O)(=O)OC[C@H]1C[C@@H](Nc2ncncc2C(=O)c2cc3c(s2)C=CC32NCCc3ccc(Cl)cc32)C[C@@H]1O` (stereo partly drawn) [Compound 78] and `[2H]C1([2H])CN[C@]2(C=Cc3sc(C(=O)c4cncnc4N[C@@H]4C[C@H](COS(N)(=O)=O)[C@@H](O)C4)cc32)c2cc(Cl)ccc21` [Compound 238] cannot be ordered by IC50: ≤ 50 nM for the first, ≤ 50 nM for the second.

`CN1Cc2sc(C(=O)c3cncnc3N[C@@H]3C[C@H](COS(N)(=O)=O)[C@@H](O)C3)cc2[C@]2(C1)OCCc1ccc(F)cc12` [Compound 258] and `NS(=O)(=O)OC[C@H]1C[C@@H](Nc2ncncc2C(=O)c2cc3c(s2)CCC32OCCc3ccc(F)cc32)C[C@@H]1O` (stereo partly drawn) [Compound 283] cannot be ordered by IC50: ≤ 50 nM for the first, 50 to 200 nM for the second.

First: NS(=O)(=O)OC[C@H]1C[C@@H](Nc2ncncc2C(=O)c2cc3c(s2)C=C[C@]32OCCc3ccc(Cl)cc32)C[C@@H]1O [Compound 297]
Second: NS(=O)(=O)OC[C@H]1C[C@@H](Nc2ncncc2C(=O)c2cc3c(s2)C=C[C@@]32OCCc3ccc(F)cc32)C[C@@H]1O [Compound 293]
The IC50 of the first is lower: ≤ 50 nM for the first, > 200 nM for the second. The first is the more potent here.

`NS(=O)(=O)OC[C@H]1C[C@@H](Nc2ncncc2C(=O)c2cc3c(s2)COC[C@@]32NCCc3ccccc32)C[C@@H]1O` [Compound 14] and `NS(=O)(=O)OC[C@H]1C[C@@H](Nc2ncncc2C(=O)c2cc3c(s2)COC[C@@]32NCCc3c(Cl)cc(Cl)cc32)C[C@@H]1O` [Compound 101] cannot be ordered by IC50: > 200 nM for the first, > 200 nM for the second.

`NS(=O)(=O)OC[C@H]1C[C@@H](Nc2ncncc2C(=O)c2cc3c(s2)CCC[C@]32OCCc3ccccc32)C[C@@H]1O` [Compound 246] and `NS(=O)(=O)OC[C@H]1C[C@@H](Nc2ncncc2C(=O)c2cc3c(s2)CCCC32OCCc3ccc(Cl)cc32)C[C@@H]1O` (stereo partly drawn) [Compound 42] cannot be ordered by IC50: 50 to 200 nM for the first, ≤ 50 nM for the second.

`COc1ccc2c(c1)C1(CCc3sc(C(=O)c4cncnc4N[C@@H]4C[C@H](COS(N)(=O)=O)[C@@H](O)C4)cc31)NCC2` (stereo partly drawn) [Compound 66] and `N#Cc1ccc2c(c1)[C@]1(CCCc3sc(C(=O)c4cncnc4N[C@@H]4C[C@H](COS(N)(=O)=O)[C@@H](O)C4)cc31)NCC2` [Compound 11] cannot be ordered by IC50: > 200 nM for the first, > 200 nM for the second.

`NS(=O)(=O)OC[C@H]1C[C@@H](Nc2ncncc2C(=O)c2cc3c(s2)CCC[C@]32NCC3(CC3)c3ccc(Cl)cc32)C[C@@H]1O` [Compound 219] and `NS(=O)(=O)OC[C@H]1C[C@@H](Nc2ncncc2C(=O)c2cc3c(s2)CCCC32NCC3(CC3)c3ccc(Cl)cc32)C[C@@H]1O` (stereo partly drawn) [Compound 39] cannot be ordered by IC50: ≤ 50 nM for the first, 50 to 200 nM for the second.

`NS(=O)(=O)OC[C@H]1C[C@@H](Nc2ncncc2C(=O)c2cc3c(s2)CCCC32NC3(CC3)Cc3ccc(Cl)cc32)C[C@@H]1O` (stereo partly drawn) [Compound 40] and `NS(=O)(=O)OC[C@H]1C[C@@H](Nc2ncncc2C(=O)c2cc3c(s2)CCCC32NCCc3cnc(Cl)cc32)C[C@@H]1O` (stereo partly drawn) [Compound 133] fall in the same range of IC50: 50 to 200 nM for the first, 50 to 200 nM for the second.

`NS(=O)(=O)OC[C@H]1C[C@@H](Nc2ncncc2C(=O)c2cc3c(s2)CCC32NCC(=O)c3ccc(Cl)cc32)C[C@@H]1O` (stereo partly drawn) [Compound 83] and `CC1=CC2(NCCc3ccc(Cl)cc32)c2cc(C(=O)c3cncnc3N[C@@H]3C[C@H](COS(N)(=O)=O)[C@@H](O)C3)sc21` (stereo partly drawn) [Compound 157] fall in the same range of IC50: 50 to 200 nM for the first, 50 to 200 nM for the second.

Going from `CCN1Cc2sc(C(=O)c3cncnc3N[C@@H]3C[C@H](COS(N)(=O)=O)[C@@H](O)C3)cc2[C@]2(C1)OCCc1ccc(Cl)cc12` [Compound 267] to `CC1=C[C@@]2(NCCc3ccc(Cl)cc32)c2cc(C(=O)c3cncnc3N[C@@H]3C[C@H](COS(N)(=O)=O)[C@@H](O)C3)sc21` [Compound 158], the IC50 rises from ≤ 50 nM to > 200 nM.

`NS(=O)(=O)OC[C@H]1C[C@@H](Nc2ncncc2C(=O)c2cc3c(s2)C=CC32OCCc3ccc(F)cc32)C[C@@H]1O` (stereo partly drawn) [Compound 292] and `NS(=O)(=O)OC[C@H]1C[C@@H](Nc2ncncc2C(=O)c2cc3c(s2)C=C[C@]32OCCc3ccccc32)C[C@@H]1O` [Compound 291] fall in the same range of IC50: 50 to 200 nM for the first, 50 to 200 nM for the second.

`NS(=O)(=O)OC[C@H]1C[C@@H](Nc2ncncc2C(=O)c2cc3c(s2)CCCC32NCCc3cc(Cl)c(Cl)cc32)C[C@@H]1O` (stereo partly drawn) [Compound 28] and `NS(=O)(=O)OC[C@H]1C[C@@H](Nc2ncncc2C(=O)c2cc3c(s2)CCCC32NCCc3cc(F)c(F)cc32)C[C@@H]1O` (stereo partly drawn) [Compound 26] fall in the same range of IC50: 50 to 200 nM for the first, 50 to 200 nM for the second.

Compared with `NS(=O)(=O)OC[C@H]1C[C@@H](Nc2ncncc2C(=O)c2cc3c(s2)CCCC32NCCc3cc(Cl)ncc32)C[C@@H]1O` (stereo partly drawn) [Compound 35], `NS(=O)(=O)OC[C@H]1C[C@@H](Nc2ncncc2C(=O)c2nc3c(s2)CSCC32NCCc3ccc(Cl)cc32)C[C@@H]1O` (stereo partly drawn) [Compound 127] is higher in IC50: 50 to 200 nM for the first, > 200 nM for the second.

For `NS(=O)(=O)OC[C@H]1C[C@@H](Nc2ncncc2C(=O)c2cc3c(s2)C=C[C@@]32NCCc3ccc(F)cc32)C[C@@H]1O` [Compound 177], the IC50 was > 200 nM.

Same assay, conditions: 6 h incubation, numeric values, read-out: SUMO IF IC50

Point of comparison: `C=CCN1Cc2sc(C(=O)c3cncnc3N[C@@H]3C[C@H](COS(N)(=O)=O)[C@@H](O)C3)cc2[C@]2(C1)NCCc1ccc(Cl)cc12` [Compound 192], IC50 25.1 nM. Against it:
- NS(=O)(=O)OC[C@H]1C[C@@H](Nc2ncncc2C(=O)c2cc3c(s2)CSC[C@]32NCCc3ccc(Cl)cc32)C[C@@H]1O [Compound 93] — within 1.5-fold, 28.9 nM
- NS(=O)(=O)OC[C@H]1C[C@@H](Nc2ncncc2C(=O)c2cc3c(s2)COC[C@]32NCCc3ccc(F)cc32)C[C@@H]1O [Compound 18] — 4.1-fold higher, 104 nM
- Cc1sc(C(=O)c2cncnc2N[C@@H]2C[C@H](COS(N)(=O)=O)[C@@H](O)C2)cc1[C@@H]1NCCc2ccc(Cl)cc21 [TAK-981, reference compound] — 2.1-fold higher, 53.2 nM
- CCN1Cc2sc(C(=O)c3cncnc3N[C@@H]3C[C@H](COS(N)(=O)=O)[C@@H](O)C3)cc2[C@]2(C1)NCCc1ccc(Cl)cc12 [Compound 183] — within 1.5-fold, 18.7 nM
- NS(=O)(=O)OC[C@H]1C[C@@H](Nc2ncncc2C(=O)c2cc3c(s2)CSC[C@@]32NCCc3ccc(Cl)cc32)C[C@@H]1O [Compound 92] — higher, > 1000 nM
- NS(=O)(=O)OC[C@H]1C[C@@H](Nc2ncncc2C(=O)c2cc3c(s2)CN(C2CC2)C[C@@]32NCCc3ccc(Cl)cc32)C[C@@H]1O [Compound 116] — higher, > 1000 nM
- NS(=O)(=O)OC[C@H]1C[C@@H](Nc2ncncc2C(=O)c2cc3c(s2)COC[C@@]32NCCc3ccc(Cl)cc32)C[C@@H]1O [Compound 20] — higher, > 1000 nM
